Measurements published in US6171829A, “Physiologically active substance PF1191 and process for producing the same” (Meiji Seika Kaisha, Ltd., priority 1997, dated 2001).
“Also recorded” adds a separate entry of the source.

Columns and labels:
[1] = system: primarily cultured chick telencephalon nerve cells; conditions: Neuroscience Letters, vol. 139, 205-208 (1992); result in words; cited from earlier work
[2] = system: primarily cultured nerve cells of rat hippocampus; assay: Inhibitory activity to kainic acid toxicity, primarily cultured nerve cells of rat hippocampus; assay type: cell-based
Experimental: (§1) The inhibitory activities to kainic acid toxicity of the substance PF1191 on primarily cultured nerve cells of chick telencephalon and rat hippocampus were examined. The test with the use of the primarily cultured nerve cells of chick telencephalon was carried out in accordance with the method reported in Neuroscience Letters, vol. 139, 205-208 […], while the test with the use of the primarily cultured nerve cells of rat hippocampus was carried out in accordance with the method reported in Brain Research, 126(1977) 397-425.
(§2) The molar concentration at which the cytotoxicity caused by the addition of 500 μM of kainic acid to the cultured cells was inhibited at a ratio of 50% was expressed in EC50 (effective concentration-fifty) in Table 1 below.

[3] = system: primarily cultured nerve cells of chick telencephalon; assay: Inhibitory activity to kainic acid toxicity, primarily cultured nerve cells of chick telencephalon; assay type: cell-based
Experimental: as §1, §2

O=c1[nH]c2cc([N+](=O)[O-])c([N+](=O)[O-])cc2[nH]c1=O [DNQX, 6,7-dinitroquinoxaline-2,3-dione]
inhibition of kainic acid toxicity by non-NMDA receptor antagonists [1]: inhibited

N#Cc1cc2[nH]c(=O)c(=O)[nH]c2cc1[N+](=O)[O-] [CNQX, 6-cyano-7-nitroquinoxaline-2,3-dione]
inhibition of kainic acid toxicity by non-NMDA receptor antagonists [1]: inhibited

NS(=O)(=O)c1cccc2c1c([N+](=O)[O-])cc1[nH]c(=O)c(=O)[nH]c12 [NBQX, 6-nitro-7-sulfamoylbenzo[f]quinoxaline-2,3-dione]
inhibition of kainic acid toxicity by non-NMDA receptor antagonists [1]: inhibited

NC(C(=O)O)C(O)C1(C(=O)O)CCC(CC(NC(=O)c2cc(Cl)c(O)c(Cl)c2)C(=O)O)N1 (centres unmarked) [Substance PF1191]
EC50 ([2]; rat hippocampus nerve cells + kainic acid (500 μM), read-out: 50% Effective conc. (EC50), inhibitory activity to kainic acid toxicity): 450 nM
inhibitory activity to kainic acid toxicity in comparison with DNQX ([2]; rat hippocampus nerve cells, kainic acid 500 μM, result in words): stronger inhibitory activity to kainic acid toxicity in comparison with the known substance DNQX
EC50 ([3]; Gallus gallus, chick telencephalon nerve cells + kainic acid (500 μM), read-out: 50% Effective conc. (EC50), inhibitory activity to kainic acid toxicity): 1500 nM
inhibitory activity to kainic acid toxicity in comparison with DNQX ([3]; chick telencephalon nerve cells, kainic acid 500 μM, result in words): stronger inhibitory activity to kainic acid toxicity than that of DNQX; also recorded: stronger inhibitory activity to kainic acid toxicity in comparison with the known substance DNQX

C=C(C)[C@H]1CN[C@H](C(=O)O)[C@H]1CC(=O)O [kainic acid]
toxicity to primarily cultured chick telencephalon nerve cells [1]: toxic
